For orientation: Kd means the concentration at which binding is half-saturated.

Assay [1] concerns the target T1, Mitogen-activated protein kinase 6 (Homo sapiens, UniProt Q16659). As to the kind of experiment: Binding affinity to LPP-dephosphorylated recombinant wild-type ERK3 (9 to 327 residues) (unknown origin) expressed in Escherichia coli by microscale thermophoresis assay.
The target of assay [2] is T1, Mitogen-activated protein kinase 6. Kind of assay: Binding affinity to recombinant wild-type ERK3 (9 to 327 residues) (unknown origin) expressed in Escherichia coli by microscale thermophoresis assay.
The target is the same in assay [3]. Kind of assay: Binding affinity to wild-type human partial length ERK3 (M1 to P413 residues) expressed in bacterial expression system by kinomescan method.
Assay [4] has the same target. As to the kind of experiment: Binding affinity to recombinant wild-type ERK3 (9 to 327 residues) (unknown origin) expressed in Sf21 insect cells by microscale thermophoresis assay. (In general: Microscale thermophoresis detects binding through changes in fluorescence in a small temperature gradient.)

Bounds are passed on as bounds.

T1 sequence (Q16659 whole entry, the tested form may be a part): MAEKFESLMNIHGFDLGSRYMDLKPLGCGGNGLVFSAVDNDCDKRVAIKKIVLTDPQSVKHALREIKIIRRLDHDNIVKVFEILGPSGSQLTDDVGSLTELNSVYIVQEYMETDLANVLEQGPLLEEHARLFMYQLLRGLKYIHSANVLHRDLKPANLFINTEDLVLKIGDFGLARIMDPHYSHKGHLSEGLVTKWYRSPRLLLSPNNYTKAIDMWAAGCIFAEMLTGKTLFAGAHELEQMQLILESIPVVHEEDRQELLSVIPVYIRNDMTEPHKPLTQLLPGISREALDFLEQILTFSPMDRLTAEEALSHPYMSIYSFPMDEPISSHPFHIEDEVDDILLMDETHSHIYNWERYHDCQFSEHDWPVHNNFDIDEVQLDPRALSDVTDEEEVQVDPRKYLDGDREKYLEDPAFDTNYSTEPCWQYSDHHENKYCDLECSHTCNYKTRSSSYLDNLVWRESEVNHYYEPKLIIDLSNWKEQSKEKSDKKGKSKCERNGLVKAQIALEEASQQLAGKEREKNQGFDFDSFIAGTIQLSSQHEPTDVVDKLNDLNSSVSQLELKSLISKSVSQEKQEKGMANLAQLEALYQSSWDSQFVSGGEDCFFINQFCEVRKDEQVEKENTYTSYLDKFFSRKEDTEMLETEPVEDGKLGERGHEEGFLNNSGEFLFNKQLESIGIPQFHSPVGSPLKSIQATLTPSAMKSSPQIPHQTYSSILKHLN

For `Nc1n[nH]c2nnc(-c3c(-c4ccccc4)nn4ccccc34)cc12`, in assay [1], the dissociation constant (Kd) was > 10000 nM.

As for `O=C(Nc1ccc2[nH]nc(-c3ccncc3)c2c1)[C@@H]1CCN(CC(=O)N2CCN(c3ccc(-c4ncccn4)cc3)CC2)C1`, the Kd in assay [2] stood at 14.3 µM.

With `COc1ccc(-n2nnc3cnc(N[C@H]4CC[C@H](C(N)=O)CC4)nc32)cc1`, the equilibrium dissociation constant (Kd) is 980 nM in assay [3], 1.3 µM in assay [2], 1500 nM in assay [1] and 1100 nM in assay [4].

The record behind these values is ChEMBL document CHEMBL4699499, “Biochemical, cellular and structural characterization of novel and selective ERK3 inhibitors” (Bioorg Med Chem Lett, 2020).
